This note sets out measurements from PMC6597265 (ACS chemical neuroscience, 2019).

Read-outs that look alike come from different tables or passages of the source.

One assay addresses native KA receptors. Nature of the assay: Binding affinity at native KA receptors, [3H]-KA, rat cortical synaptosomes. The following applies: native iGluRs; for IC50 KA: mean of at least three experiments.
In another assay the target is human EAAT1 (Homo sapiens, UniProt P43003). Nature of the assay: [3H]-D-Asp uptake assay, EAAT1 stably expressed in HEK293 cells. In kind it is cell-based.
Assay [1] deals with recombinant rat homomeric GluK3 (Rattus norvegicus, UniProt P42264). Nature of the assay: Binding affinity at cloned homomeric GluK3 expressed in sf9 cells, [3H]-KA. Conditions: for GluK1/K3 (GluK1/GluK3 Ki selectivity ratio): ratio of Ki values at cloned homomeric receptors.
The target in assay [2] is recombinant rat homomeric GluK2 (Rattus norvegicus, UniProt P42260). Nature of the assay: Binding affinity at cloned homomeric GluK2 expressed in sf9 cells, [3H]-KA.
In assay [3] the target is recombinant rat homomeric GluK1 (Rattus norvegicus, UniProt P22756). Description: Binding affinity at cloned homomeric GluK1 expressed in sf9 cells, [3H]-NF608.
In another assay the target is human EAAT2 (Homo sapiens, UniProt P43004). Nature of the assay: [3H]-D-Asp uptake assay, EAAT2 stably expressed in HEK293 cells. In kind it is cell-based.
A further assay has as its target T1, human EAAT3 (Homo sapiens, UniProt P43005).
T1 sequence (P43005 1-524): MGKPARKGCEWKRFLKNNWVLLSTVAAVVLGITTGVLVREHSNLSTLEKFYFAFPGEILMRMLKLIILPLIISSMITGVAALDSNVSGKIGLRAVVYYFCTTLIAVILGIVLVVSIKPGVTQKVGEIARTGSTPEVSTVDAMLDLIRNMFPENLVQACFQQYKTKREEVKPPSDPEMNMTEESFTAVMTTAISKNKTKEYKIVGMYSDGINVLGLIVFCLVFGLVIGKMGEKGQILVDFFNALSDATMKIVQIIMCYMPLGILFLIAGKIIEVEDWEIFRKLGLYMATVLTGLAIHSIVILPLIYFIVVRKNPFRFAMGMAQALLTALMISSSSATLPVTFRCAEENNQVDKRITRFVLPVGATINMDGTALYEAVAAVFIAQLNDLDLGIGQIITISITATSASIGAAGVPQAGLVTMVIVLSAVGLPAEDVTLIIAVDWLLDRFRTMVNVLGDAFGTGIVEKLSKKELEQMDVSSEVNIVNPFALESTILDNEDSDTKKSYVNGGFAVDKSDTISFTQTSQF
Description: [3H]-D-Asp uptake assay, EAAT3 stably expressed in HEK293 cells. In kind it is cell-based.

The next assay has as its target native NMDA receptors. In kind it is binding. The following applies: native iGluRs, rat synaptosomes.
Where [4] appears, read: Ki GluK3, cloned homomeric receptor, mean ± SEM, at least three experiments.
The mark [5] stands for this setting: IC50 EAAT1, HEK293 cells, [3H]-D-Asp uptake.

Chain of recombinant rat homomeric GluK2 (P42260 32-908): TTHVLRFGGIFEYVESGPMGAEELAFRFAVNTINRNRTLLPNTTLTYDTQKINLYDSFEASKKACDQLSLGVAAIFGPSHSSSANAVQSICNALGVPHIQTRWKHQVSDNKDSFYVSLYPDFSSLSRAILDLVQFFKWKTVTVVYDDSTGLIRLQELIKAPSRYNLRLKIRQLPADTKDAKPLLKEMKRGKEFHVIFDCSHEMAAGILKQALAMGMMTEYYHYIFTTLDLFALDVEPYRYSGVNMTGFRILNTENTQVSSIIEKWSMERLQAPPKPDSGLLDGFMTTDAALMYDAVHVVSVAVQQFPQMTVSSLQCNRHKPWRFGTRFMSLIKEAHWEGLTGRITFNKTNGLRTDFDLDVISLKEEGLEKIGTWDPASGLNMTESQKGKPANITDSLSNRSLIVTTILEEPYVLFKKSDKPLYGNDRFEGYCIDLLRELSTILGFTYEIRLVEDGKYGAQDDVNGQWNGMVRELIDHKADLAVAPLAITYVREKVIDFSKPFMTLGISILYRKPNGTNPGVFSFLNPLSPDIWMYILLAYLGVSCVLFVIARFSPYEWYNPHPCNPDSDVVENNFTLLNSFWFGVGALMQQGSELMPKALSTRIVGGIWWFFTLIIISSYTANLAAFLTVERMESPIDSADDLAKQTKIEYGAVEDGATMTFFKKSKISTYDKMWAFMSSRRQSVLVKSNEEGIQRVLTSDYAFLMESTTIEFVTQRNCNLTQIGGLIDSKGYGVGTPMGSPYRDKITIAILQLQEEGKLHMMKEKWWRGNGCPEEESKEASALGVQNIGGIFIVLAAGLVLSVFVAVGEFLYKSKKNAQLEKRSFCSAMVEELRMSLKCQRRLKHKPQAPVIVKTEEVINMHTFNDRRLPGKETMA
Chain of human EAAT2 (P43004 whole entry): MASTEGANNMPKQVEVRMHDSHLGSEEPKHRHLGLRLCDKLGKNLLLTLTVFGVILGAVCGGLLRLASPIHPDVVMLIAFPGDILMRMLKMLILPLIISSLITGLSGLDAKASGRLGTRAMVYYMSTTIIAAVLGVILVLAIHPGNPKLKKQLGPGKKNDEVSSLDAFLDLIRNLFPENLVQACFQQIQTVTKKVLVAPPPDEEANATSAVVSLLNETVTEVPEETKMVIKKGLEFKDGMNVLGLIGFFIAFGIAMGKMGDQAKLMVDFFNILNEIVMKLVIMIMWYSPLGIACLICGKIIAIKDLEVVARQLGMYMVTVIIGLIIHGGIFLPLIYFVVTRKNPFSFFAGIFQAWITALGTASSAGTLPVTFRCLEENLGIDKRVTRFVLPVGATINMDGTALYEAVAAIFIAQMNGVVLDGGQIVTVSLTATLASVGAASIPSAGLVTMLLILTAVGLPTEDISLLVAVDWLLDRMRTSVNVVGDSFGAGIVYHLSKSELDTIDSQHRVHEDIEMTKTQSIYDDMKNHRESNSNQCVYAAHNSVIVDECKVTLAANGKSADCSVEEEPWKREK
Chain of recombinant rat homomeric GluK1 (P22756 31-949): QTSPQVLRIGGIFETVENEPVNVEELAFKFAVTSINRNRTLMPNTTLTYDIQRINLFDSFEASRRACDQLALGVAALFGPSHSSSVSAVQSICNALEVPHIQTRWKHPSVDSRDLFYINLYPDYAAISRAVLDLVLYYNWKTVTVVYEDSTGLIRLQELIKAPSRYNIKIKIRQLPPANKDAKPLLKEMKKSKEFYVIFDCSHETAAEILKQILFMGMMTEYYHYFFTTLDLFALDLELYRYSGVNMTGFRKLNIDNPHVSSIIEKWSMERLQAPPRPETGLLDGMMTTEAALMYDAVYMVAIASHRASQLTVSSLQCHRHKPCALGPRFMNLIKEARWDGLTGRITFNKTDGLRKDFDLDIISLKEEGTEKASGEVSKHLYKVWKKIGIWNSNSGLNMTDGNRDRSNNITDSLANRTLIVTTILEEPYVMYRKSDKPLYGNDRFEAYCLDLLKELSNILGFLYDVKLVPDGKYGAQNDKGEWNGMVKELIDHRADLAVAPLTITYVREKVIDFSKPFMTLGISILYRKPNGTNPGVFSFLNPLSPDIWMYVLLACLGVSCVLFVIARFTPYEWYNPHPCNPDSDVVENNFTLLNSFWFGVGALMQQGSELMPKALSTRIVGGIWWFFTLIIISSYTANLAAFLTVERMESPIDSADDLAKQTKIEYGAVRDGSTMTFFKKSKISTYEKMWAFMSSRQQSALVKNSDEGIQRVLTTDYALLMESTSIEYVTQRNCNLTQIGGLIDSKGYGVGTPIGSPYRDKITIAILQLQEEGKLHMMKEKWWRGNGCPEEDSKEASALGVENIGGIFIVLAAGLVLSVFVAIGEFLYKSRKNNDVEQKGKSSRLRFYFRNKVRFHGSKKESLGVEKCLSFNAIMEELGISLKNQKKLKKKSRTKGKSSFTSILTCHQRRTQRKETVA
Chain of recombinant rat homomeric GluK3 (P42264 32-919): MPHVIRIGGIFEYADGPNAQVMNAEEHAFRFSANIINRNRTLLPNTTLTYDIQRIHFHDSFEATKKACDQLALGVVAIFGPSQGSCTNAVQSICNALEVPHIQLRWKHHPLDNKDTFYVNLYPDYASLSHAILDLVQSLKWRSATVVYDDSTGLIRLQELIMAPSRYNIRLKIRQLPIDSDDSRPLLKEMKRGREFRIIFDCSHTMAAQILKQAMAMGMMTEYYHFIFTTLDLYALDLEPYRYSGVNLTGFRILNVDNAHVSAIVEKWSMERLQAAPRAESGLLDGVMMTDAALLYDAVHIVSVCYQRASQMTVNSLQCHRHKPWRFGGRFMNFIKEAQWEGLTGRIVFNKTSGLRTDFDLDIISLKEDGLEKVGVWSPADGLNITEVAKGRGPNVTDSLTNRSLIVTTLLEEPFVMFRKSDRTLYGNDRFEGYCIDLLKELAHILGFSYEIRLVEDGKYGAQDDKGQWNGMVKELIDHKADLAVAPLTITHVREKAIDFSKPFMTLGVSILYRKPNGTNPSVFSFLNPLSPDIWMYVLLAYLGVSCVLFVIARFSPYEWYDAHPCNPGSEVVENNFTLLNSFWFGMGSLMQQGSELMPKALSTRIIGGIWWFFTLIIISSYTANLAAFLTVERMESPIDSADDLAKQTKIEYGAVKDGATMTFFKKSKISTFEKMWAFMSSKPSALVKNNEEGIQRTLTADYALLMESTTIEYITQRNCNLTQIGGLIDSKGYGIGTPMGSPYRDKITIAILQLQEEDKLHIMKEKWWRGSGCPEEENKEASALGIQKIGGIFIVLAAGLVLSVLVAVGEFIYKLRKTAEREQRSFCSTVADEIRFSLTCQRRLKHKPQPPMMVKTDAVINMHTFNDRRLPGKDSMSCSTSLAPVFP
Chain of human EAAT1 (P43003 whole entry): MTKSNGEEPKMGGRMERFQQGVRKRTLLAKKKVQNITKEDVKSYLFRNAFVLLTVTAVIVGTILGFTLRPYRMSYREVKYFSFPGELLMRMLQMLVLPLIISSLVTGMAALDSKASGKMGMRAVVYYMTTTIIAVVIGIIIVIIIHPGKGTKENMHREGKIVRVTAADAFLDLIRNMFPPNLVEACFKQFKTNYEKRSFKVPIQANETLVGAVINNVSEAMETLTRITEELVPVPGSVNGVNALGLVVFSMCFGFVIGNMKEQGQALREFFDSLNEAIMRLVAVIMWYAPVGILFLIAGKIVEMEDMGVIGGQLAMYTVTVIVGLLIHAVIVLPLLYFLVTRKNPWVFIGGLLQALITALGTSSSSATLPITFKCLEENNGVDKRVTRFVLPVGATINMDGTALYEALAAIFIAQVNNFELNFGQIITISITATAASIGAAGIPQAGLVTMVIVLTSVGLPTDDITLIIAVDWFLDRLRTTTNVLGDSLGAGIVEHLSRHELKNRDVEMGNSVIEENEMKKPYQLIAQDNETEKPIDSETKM

As a reminder, the IC50 is the point on the concentration scale where inhibition reaches its midpoint. For orientation: Ki means a dissociation constant, usually derived from enzyme kinetics or from competition with a known ligand. In the case of `Cl.O=C(O)C(Cc1c[nH]nn1)[C@@H]1CCN[C@H]1C(=O)O` (stereo partly drawn) [3p-d1, trans-3-(1-Carboxy-2-(1H-1,2,3-triazol-4-yl)ethyl)pyrrolidine-2-carboxylic Acid Hydrochloride], the “IC50 KA” value on native KA receptors is >100 µM. The IC50 on human EAAT1 (IC50 EAAT1), on human EAAT2 and on human EAAT3 was > 300 µM in each case. Further, the inhibitory constant (Ki) was 6.6 ± 0.09 µM in assay [1] (setting [4]), > 100 µM in assay [2] (Ki GluK2) and ~100 µM in assay [3].

Consider `CC(C)C(C(=O)O)[C@@H]1CCN[C@H]1C(=O)O.Cl` (relative stereo) [3f, trans-3-(1-Carboxy-2-methylpropyl)pyrrolidine-2-carboxylic Acid Hydrochloride], for which, on native KA receptors, the “IC50 KA” value was >100 µM. Moreover, the 50% inhibitory concentration (IC50) is 45 µM on human EAAT1 (IC50 EAAT1); 45.7 µM at human EAAT1 (pIC50 EAAT1 (mean ± SEM, in brackets)); 15.8 µM on human EAAT2; 35.5 µM against human EAAT3. Also, the inhibition constant Ki in assay [1] (setting [4]), in assay [2] (Ki GluK2) and in assay [3] was > 100 µM in each case.

Consider `Cl.O=C(O)[C@H]1NCC[C@@H]1[C@@H](C(=O)O)c1ccccc1` [3d-s1, (2S,3R)-3-((R)-Carboxy(phenyl)methyl)pyrrolidine-2-carboxylic Acid Hydrochloride], for which, at native KA receptors, the “IC50 KA” value is >100 µM. For the same compound, the figures for the half-maximal inhibitory concentration (IC50) against human EAAT1 (IC50 EAAT1), at human EAAT2 and against human EAAT3 were > 300 µM, ~50 µM and > 300 µM, respectively. In addition, the inhibition constant (Ki) in assay [1] (Ki GluK3), in assay [2] (Ki GluK2) and in assay [3] was > 100 µM each time.

Consider `CC[C@@H](C(=O)O)[C@H]1CCN[C@@H]1C(=O)O.Cl` [3c-s2, (2S,3R)-3-((R)-1-Carboxypropyl)pyrrolidine-2-carboxylic Acid Hydrochloride], for which, at native KA receptors, the “IC50 KA” value was >100 µM. Further, the half-inhibitory concentration (IC50) against human EAAT1, against human EAAT2 and at human EAAT3 was > 300 µM throughout. The Ki in assay [1] was 6.3 ± 1.3 µM; in assay [2] it was 70 ± 14 µM; in assay [3] it was 41 ± 14 µM. The “GluK1/K3 (GluK1/GluK3 Ki selectivity ratio)” value in assay [1] turned out to be 7.

Turning to `Cl.O=C(O)CC(C(=O)O)[C@@H]1CCN[C@H]1C(=O)O` (relative stereo) [3l, trans-2-(2-Carboxypyrrolidin-3-yl)succinic Acid Hydrochloride], the “pKi NMDA (mean ± SEM, in brackets)” value on native NMDA receptors is 5.58 ± 0.03. For the same compound, the “pIC50 KA (mean ± SEM, in brackets)” value at native KA receptors was found to be 4.63 ± 0.02. For the same compound, at native KA receptors, the “IC50 KA” value came to 23 µM. For the same compound, the 50% inhibitory concentration (IC50) at human EAAT1 (IC50 EAAT1), at human EAAT2 and against human EAAT3 was > 1000 µM throughout. Moreover, the figures for the Ki in assay [1] (setting [4]), in assay [2] (Ki GluK2) and in assay [3] were 6.4 ± 1.2 µM, 33 ± 1.1 µM and 2 ± 0.16 µM, respectively.

`COC(C(=O)O)[C@@H]1CCN[C@H]1C(=O)O.Cl` (relative stereo) [3j-d1, trans-3-(Carboxy(methoxy)methyl)pyrrolidine-2-carboxylic Acid Hydrochloride]: the “IC50 KA” value on native KA receptors was >100 µM. In addition, the concentration for half-maximal inhibition (IC50) at human EAAT1 is > 1000 µM; against human EAAT2, ~300 µM; against human EAAT3, > 1000 µM. For the same compound, the Ki in assay [1] was 82 ± 11.2 µM; in assay [2], > 100 µM; in assay [3], > 100 µM.

As for `O=C([O-])C(CCO)[C@@H]1CCN[C@H]1C(=O)[O-].[Na+].[Na+]` (relative stereo) [3n, Disodium trans-3-(1-Carboxylato-3-hydroxypropyl)pyrrolidine-2-carboxylate], the “pKi NMDA (mean ± SEM, in brackets)” value at native NMDA receptors stood at 4.23 ± 0.06. Besides, the half-maximal inhibitory concentration (IC50) on human EAAT1 (setting [5]), at human EAAT2 and on human EAAT3 was > 300 µM throughout. For the same compound, the Ki in assay [1] (setting [4]) was 52 ± 3 µM; in assay [2] (Ki GluK2, cloned homomeric receptor, mean ± SEM, at least three experiments), > 100 µM; in assay [3], > 100 µM. Besides, in assay [1], the “GluK1/K3 (GluK1/GluK3 Ki selectivity ratio)” value is on record as >2.

Consider `Cl.O=C(O)[C@H]1NCC[C@@H]1[C@H](C(=O)O)c1ccccc1` [3d-s2, (2S,3R)-3-((S)-Carboxy(phenyl)methyl)pyrrolidine-2-carboxylic Acid Hydrochloride], for which, at native KA receptors, the “IC50 KA” value is >100 µM. Besides, the IC50 against human EAAT1 (IC50 EAAT1), against human EAAT2 and against human EAAT3 was > 300 µM in each case. Further, the inhibitory constant (Ki) in assay [1] (Ki GluK3), in assay [2] (Ki GluK2) and in assay [3] was > 100 µM in each case.

On to `Cl.O=C(O)C(Cc1c[nH]nn1)[C@@H]1CCN[C@H]1C(=O)O` (stereo partly drawn) [3p-d2, trans-3-(1-Carboxy-2-(1H-1,2,3-triazol-4-yl)ethyl)pyrrolidine-2-carboxylic Acid Hydrochloride], for which the “pKi NMDA (mean ± SEM, in brackets)” value on native NMDA receptors was 4.30 ± 0.03. The “pIC50 KA (mean ± SEM, in brackets)” value on native KA receptors amounted to 4.24 ± 0.01. In addition, the “IC50 KA” value on native KA receptors turned out to be 58 µM. Also, the Ki in assay [1] (setting [4]) came out at 2.7 ± 0.32 µM; in assay [2] (Ki GluK2), 43 ± 5.2 µM.

With `Cl.O=C(O)C(Cc1c[nH]nn1)[C@@H]1CCN[C@H]1C(=O)O` (mixture of isomers) [3p, trans-3-(1-Carboxy-2-(1H-1,2,3-triazol-4-yl)ethyl)pyrrolidine-2-carboxylic Acid Hydrochloride], on native KA receptors, the “pIC50 KA (mean ± SEM, in brackets)” value amounted to 4.23 ± 0.03. Also, on native KA receptors, the “IC50 KA” value is 59 µM. Moreover, the IC50 against human EAAT1 (IC50 EAAT1), against human EAAT2 and against human EAAT3 was > 300 µM throughout. The Ki in assay [1] (setting [4]) was 3.1 ± 0.14 µM; in assay [2] (Ki GluK2) it was 55 ± 9 µM; in assay [3] it was 14 ± 2 µM. Further, the “GluK1/K3 (GluK1/GluK3 Ki selectivity ratio)” value in assay [1] is given as 5.

`Cc1onc(O)c1CC(N)C(=O)O` (stereo not drawn) [AMPA, α-amino-3-hydroxy-5-methyl-4-isoxazolepropionic acid, reference compound]: in assay [1], the GluK1/GluK3 is given as 0.03 and the GluK2/GluK3 is given as >23.

With `Cl.O=C(O)CCC(C(=O)O)[C@@H]1CCN[C@H]1C(=O)O` (relative stereo) [3m, trans-2-(2-Carboxypyrrolidin-3-yl)pentanedioic Acid Hydrochloride], the “pKi NMDA (mean ± SEM, in brackets)” value on native NMDA receptors was found to be 4.28 ± 0.01. The “IC50 KA” value at native KA receptors was >100 µM. Moreover, the IC50 against human EAAT1 (IC50 EAAT1), at human EAAT2 and against human EAAT3 was > 300 µM throughout. Moreover, the Ki in assay [1] (setting [4]), in assay [2] (Ki GluK2) and in assay [3] was > 100 µM in each case.

For the compound `CCCC(C(=O)O)[C@@H]1CCN[C@H]1C(=O)O.Cl` (relative stereo) [3e, trans-3-(1-Carboxybutyl)pyrrolidine-2-carboxylic Acid Hydrochloride], the “IC50 KA” value on native KA receptors was >100 µM.

Turning to `Cl.O=C(O)C(CCCO)[C@@H]1CCN[C@H]1C(=O)O` (relative stereo) [3o, trans-3-(1-Carboxy-4-hydroxybutyl)pyrrolidine-2-carboxylic Acid Hydrochloride], the “IC50 KA” value at native KA receptors is >100 µM. The IC50 against human EAAT1 (IC50 EAAT1), on human EAAT2 and against human EAAT3 was > 300 µM each time. Further, the inhibition constant (Ki) in assay [1] (setting [4]), in assay [2] (Ki GluK2) and in assay [3] was > 100 µM in each case.

In the case of `Cl.O=C(O)C(CCc1ccccc1)[C@@H]1CCN[C@H]1C(=O)O` (relative stereo) [3h, trans-3-(1-Carboxy-3-phenylpropyl)pyrrolidine-2-carboxylic Acid Hydrochloride], on native KA receptors, the “IC50 KA” value is >100 µM. Besides, the IC50 at human EAAT1 (IC50 EAAT1), against human EAAT2 and against human EAAT3 was > 300 µM throughout. The values for the Ki in assay [1] (setting [4]), in assay [2] (Ki GluK2) and in assay [3] were 86 ± 7.3 µM, > 100 µM and > 100 µM, respectively.

For the compound `CC[C@H](C(=O)O)[C@H]1CCN[C@@H]1C(=O)O.Cl` [3c-s1, (2S,3R)-3-((S)-1-Carboxypropyl)pyrrolidine-2-carboxylic Acid Hydrochloride], the “pKi NMDA (mean ± SEM, in brackets)” value at native NMDA receptors amounted to 4.88 ± 0.02. Also, at native KA receptors, the “IC50 KA” value is >100 µM. Moreover, the IC50 at human EAAT1 was ~100 µM; against human EAAT2, ~30 µM; at human EAAT3, ~50 µM. For the same compound, the inhibition constant Ki in assay [1] is 11 ± 2.4 µM; in assay [2] it was > 100 µM; in assay [3], 18 ± 3.8 µM. In addition, in assay [1], the “GluK1/K3 (GluK1/GluK3 Ki selectivity ratio)” value worked out at 2.

For the compound `Cl.O=C(O)C(Cc1ccccc1)[C@@H]1CCN[C@H]1C(=O)O` (relative stereo) [3g, trans-3-(1-Carboxy-2-phenylethyl)pyrrolidine-2-carboxylic Acid Hydrochloride], on native KA receptors, the “pIC50 KA (mean ± SEM, in brackets)” value came to 4.15 ± 0.04. Further, on native KA receptors, the “IC50 KA” value came out at 71 µM. Besides, the half-inhibitory concentration (IC50) on human EAAT1 (setting [5]) is 34 µM; at human EAAT1 (pIC50 EAAT1 (mean ± SEM, in brackets), HEK293 cells, [3H]-D-Asp uptake) it was 34.7 µM; on human EAAT2, 20 µM. On human EAAT1 (from IC50 values), the “selectivity for EAAT1 and EAAT2 over EAAT3” value turned out to be 10 fold. The inhibition constant (Ki) in assay [1] (setting [4]) came to 5.4 ± 0.42 µM; in assay [2] (Ki GluK2) it was 67 ± 4.6 µM; in assay [3], 46 ± 2.2 µM. For the same compound, the “GluK1/K3 (GluK1/GluK3 Ki selectivity ratio)” value in assay [1] worked out at 9.
